Measurements reported in paper PMC3356581 (Bioorganic & medicinal chemistry, 2012).

Assays:
catalepsy = settings: in vivo studies, five times the ED50 dose; cited from earlier work
5-HT1A receptor [1] = biological target: T1, 5-HT1A receptor (Homo sapiens, UniProt P08908); settings: read-out: Binding data, Ki ± SEM, previously reported; cited from earlier work
T1 sequence (P08908 1-422): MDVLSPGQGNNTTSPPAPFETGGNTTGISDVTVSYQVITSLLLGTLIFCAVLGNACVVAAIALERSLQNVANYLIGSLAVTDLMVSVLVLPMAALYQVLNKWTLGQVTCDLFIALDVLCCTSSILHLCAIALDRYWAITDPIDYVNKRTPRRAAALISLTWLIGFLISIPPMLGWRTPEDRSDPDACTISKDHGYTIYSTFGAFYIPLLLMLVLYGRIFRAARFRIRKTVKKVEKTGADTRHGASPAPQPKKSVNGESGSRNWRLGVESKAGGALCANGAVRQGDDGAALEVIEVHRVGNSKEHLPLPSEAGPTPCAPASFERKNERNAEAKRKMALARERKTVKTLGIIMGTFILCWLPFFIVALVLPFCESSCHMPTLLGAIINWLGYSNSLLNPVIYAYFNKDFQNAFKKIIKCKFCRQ

5-HT2C receptor [2] = biological target: T2, 5-HT2C receptor (Homo sapiens, UniProt P28335); settings: read-out: Binding data, Ki ± SEM, previously reported; cited from earlier work
T2 sequence (P28335 33-458): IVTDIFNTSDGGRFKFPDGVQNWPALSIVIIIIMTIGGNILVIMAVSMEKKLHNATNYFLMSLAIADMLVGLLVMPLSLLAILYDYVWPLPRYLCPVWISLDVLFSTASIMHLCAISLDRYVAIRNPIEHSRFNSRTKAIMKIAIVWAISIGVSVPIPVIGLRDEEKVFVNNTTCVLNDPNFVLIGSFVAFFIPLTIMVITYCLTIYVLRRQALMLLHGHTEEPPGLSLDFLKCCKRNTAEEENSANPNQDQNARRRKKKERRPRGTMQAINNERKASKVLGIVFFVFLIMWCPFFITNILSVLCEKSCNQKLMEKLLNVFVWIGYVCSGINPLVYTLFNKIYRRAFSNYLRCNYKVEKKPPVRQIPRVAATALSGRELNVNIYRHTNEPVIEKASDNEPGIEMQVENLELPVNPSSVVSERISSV

D4 receptor [3] = biological target: T3, D4 receptor (Homo sapiens, UniProt P21917); settings: read-out: Binding data, Ki ± SEM, previously reported; cited from earlier work
T3 sequence (P21917 1-419): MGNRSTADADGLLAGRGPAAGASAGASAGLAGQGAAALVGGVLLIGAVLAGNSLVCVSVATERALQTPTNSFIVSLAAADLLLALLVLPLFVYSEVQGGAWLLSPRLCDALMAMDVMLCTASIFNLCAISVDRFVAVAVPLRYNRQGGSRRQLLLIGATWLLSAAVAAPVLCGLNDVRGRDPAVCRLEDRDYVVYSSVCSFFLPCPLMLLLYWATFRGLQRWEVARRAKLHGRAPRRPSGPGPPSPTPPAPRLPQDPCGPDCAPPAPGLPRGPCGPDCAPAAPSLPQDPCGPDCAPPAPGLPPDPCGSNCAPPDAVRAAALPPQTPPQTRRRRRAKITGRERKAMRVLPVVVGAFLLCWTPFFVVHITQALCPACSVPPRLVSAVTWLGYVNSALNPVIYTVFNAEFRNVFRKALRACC

D2 receptor = D2 receptor (Homo sapiens, UniProt P14416); assay: NIMH-PDSP radioligand binding, D2
D2 receptor, sequence (P14416 whole entry): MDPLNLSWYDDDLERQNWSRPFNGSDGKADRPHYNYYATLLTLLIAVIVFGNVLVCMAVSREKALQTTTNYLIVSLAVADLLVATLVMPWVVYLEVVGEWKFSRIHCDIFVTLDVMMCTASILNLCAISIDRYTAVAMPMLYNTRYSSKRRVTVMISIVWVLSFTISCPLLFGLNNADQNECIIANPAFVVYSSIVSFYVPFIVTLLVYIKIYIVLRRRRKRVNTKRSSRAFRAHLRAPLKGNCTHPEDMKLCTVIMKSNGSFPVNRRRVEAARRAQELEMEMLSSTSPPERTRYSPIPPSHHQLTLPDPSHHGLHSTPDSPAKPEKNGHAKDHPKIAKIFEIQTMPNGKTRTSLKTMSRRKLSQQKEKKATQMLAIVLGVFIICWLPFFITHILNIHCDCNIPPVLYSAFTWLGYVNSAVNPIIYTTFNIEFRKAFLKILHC

5-HT1A receptor [4] = biological target: T1, 5-HT1A receptor; assay: NIMH-PDSP radioligand binding, 5-HT1A
5-HT2A receptor = 5-HT2A receptor (Homo sapiens, UniProt P28223); assay: NIMH-PDSP radioligand binding, 5-HT2A
5-HT2A receptor, sequence (P28223 whole entry): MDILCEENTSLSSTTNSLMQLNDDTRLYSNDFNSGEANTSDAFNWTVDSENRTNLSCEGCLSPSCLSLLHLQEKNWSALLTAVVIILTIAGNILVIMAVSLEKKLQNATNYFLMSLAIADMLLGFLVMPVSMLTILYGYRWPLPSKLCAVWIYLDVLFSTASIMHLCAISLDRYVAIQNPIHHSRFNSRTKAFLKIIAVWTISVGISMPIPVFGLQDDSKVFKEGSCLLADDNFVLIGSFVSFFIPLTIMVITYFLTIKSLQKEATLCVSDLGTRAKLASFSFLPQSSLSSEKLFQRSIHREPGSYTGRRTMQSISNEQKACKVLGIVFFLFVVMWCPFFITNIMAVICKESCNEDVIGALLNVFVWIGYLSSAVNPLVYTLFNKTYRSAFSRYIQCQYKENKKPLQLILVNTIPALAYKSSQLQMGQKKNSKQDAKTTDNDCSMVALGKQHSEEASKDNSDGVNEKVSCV

5-HT2C receptor [5] = biological target: T2, 5-HT2C receptor; assay: NIMH-PDSP radioligand binding, 5-HT2C
D4 receptor [6] = biological target: T3, D4 receptor; assay: NIMH-PDSP radioligand binding, D4
Histamine H1 receptor = Histamine H1 receptor (Homo sapiens, UniProt P35367); assay: NIMH-PDSP radioligand binding, H1
Histamine H1 receptor, sequence (P35367 whole entry, species assumed): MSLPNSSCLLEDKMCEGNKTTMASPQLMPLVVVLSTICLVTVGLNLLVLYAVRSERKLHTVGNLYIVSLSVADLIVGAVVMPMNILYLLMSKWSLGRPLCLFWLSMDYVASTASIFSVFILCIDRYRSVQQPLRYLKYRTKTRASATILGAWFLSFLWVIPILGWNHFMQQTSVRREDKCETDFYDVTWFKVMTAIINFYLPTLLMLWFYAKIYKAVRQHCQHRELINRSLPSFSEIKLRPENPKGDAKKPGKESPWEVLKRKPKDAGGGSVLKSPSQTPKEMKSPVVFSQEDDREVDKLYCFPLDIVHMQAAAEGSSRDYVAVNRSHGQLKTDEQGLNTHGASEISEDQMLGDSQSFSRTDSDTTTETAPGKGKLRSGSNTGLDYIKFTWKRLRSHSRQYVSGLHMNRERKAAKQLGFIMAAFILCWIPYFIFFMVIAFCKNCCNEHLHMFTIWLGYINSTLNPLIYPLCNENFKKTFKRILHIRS

SMILES | Binding data; Ki ± SEM, D2 (D2 receptor) | Binding data; Ki ± SEM, 5-HT1A (5-HT1A receptor [4]) | Binding data; Ki ± SEM, 5-HT2A (5-HT2A receptor) | Binding data; Ki ± SEM, 5-HT2C (5-HT2C receptor [5]) | further results
O=C(CCCN1CCCN(c2ccc(Cl)cc2)CC1)c1ccc(F)cc1 [Compound 2, 4-(4-(4-chlorophenyl)-1,4-diazepan-1-yl)-1-(4-fluorophenyl)butan-1-one] | – | – | – | – | catalepsy (catalepsy): without the associated catalepsy even at five times the ED50 dose
O=C(CCCN1CCN(c2ccc(Cl)cc2)CC1)c1ccc(F)cc1 [Compound 3] | – | – | – | – | Ki (5-HT1A receptor [1]): 90.9 ± 21 nM; Ki (5-HT2C receptor [2]): 3.55 ± 0.943 µM; Ki (D4 receptor [3]): 17.5 ± 2 nM
Clc1ccc(N2CCCN(CCCc3nc4ccccc4s3)CC2)cc1 [Compound 14, 2-(3-(4-(4-Chlorophenyl)-1,4-diazepan-1-yl)propyl)benzo [d]thiazole] | MP (Missed primary assay threshold of 50% inhibition) | – | – | – | –
Clc1ccc(N2CCCN(Cc3nc4ccccc4s3)CC2)cc1 [Compound 15, 2-((4-(4-Chlorophenyl)-1,4-diazepan-1-yl)methyl)benzo [d]thiazole] | – | MP (Missed primary assay threshold of 50% inhibition) | MP (Missed primary assay threshold of 50% inhibition) | MP (Missed primary assay threshold of 50% inhibition) | Binding data; Ki ± SEM, D4 (D4 receptor [6]): MP (Missed primary assay threshold of 50% inhibition); Binding data; Ki ± SEM, H1 (Histamine H1 receptor): MP (Missed primary assay threshold of 50% inhibition)
O=C(CCCN1CCCN(c2ccc(Cl)cc2)CC1)c1nc2ccccc2s1 [Compound 17, 1-(Benzo[d]thiazol-2-yl)-4-(4-(4-chlorophenyl)-1,4-diazepan-1-yl)butan-1-one] | MP (Missed primary assay threshold of 50% inhibition) | MP (Missed primary assay threshold of 50% inhibition) | – | MP (Missed primary assay threshold of 50% inhibition) | –
O=C(CCCCN1C2CCC1CC(O)(c1ccc(Cl)cc1)C2)c1nc2ccccc2s1 (stereo not shown) [Compound 18, 1-(Benzo[d]thiazol-2-yl)-5-(3-(4-chlorophenyl)-3-hydroxy-8-azabicyclo[3.2.1]octan-8-yl)pentan-1-one] | – | MP (Missed primary assay threshold of 50% inhibition) | MP (Missed primary assay threshold of 50% inhibition) | MP (Missed primary assay threshold of 50% inhibition) | –
